Results taken from US20260199365A1, “BIS-SULFONAMIDE SHIP1 ACTIVATORS” (The Research Foundation for the State University of New York, priority 2022, published 2026).

Columns and labels:
[1] = target: T1, recombinant human truncated SHIP1 (tSHIP1) (Homo sapiens, UniProt Q92835); experiment: Malachite Green Phosphatase Release Assay (SHIP1 phosphatase activity); assay type: biochemical; settings: for Phosphatase activity in the Malachite Green Assay, analog concentration 125 μM: 125 μM analog; for Phosphatase activity in the Malachite Green Assay, analog concentration 125 μM / Phosphatase activity in the Malachite Green Assay, analog concentration 250 μM / Phosphatase activity in the Malachite Green Assay, analog concentration 500 μM: 100 μM PI(3,4,5)P3-diC8 substrate, normalized to vehicle control (DMSO) = 100%; for Phosphatase activity in the Malachite Green Assay, analog concentration 250 μM: 250 μM analog; for Phosphatase activity in the Malachite Green Assay, analog concentration 500 μM: 500 μM analog, >100% activation, <100% inhibition; for SHIP1 activator activity in the malachite green assay: discussion of Table 4 (125-500 μM)
T1 construct: tSHIP1 (SHIP1, residues 397-864) was amplified from pET24TEV-tSHIP1; His tag; made in house; host or cells: E. coli BL21
T1 sequence (Q92835 397-864): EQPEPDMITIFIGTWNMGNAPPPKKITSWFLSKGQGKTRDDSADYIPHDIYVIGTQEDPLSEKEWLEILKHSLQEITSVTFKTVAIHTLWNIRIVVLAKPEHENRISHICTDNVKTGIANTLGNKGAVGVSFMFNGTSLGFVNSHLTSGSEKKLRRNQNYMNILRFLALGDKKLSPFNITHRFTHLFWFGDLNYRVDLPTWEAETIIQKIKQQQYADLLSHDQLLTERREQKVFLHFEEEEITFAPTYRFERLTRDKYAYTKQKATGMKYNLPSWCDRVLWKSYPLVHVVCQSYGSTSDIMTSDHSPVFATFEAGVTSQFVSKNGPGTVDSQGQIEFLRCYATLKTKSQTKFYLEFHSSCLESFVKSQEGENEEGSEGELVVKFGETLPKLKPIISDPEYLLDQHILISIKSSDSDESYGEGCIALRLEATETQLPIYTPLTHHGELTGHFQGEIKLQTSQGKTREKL
Description: ^aPhosphatase activity for SHIP1 and SHIP2 enzyme as determined in the malachite green assay. Results were normalized to the phosphatase activity level from vehicle control (DMSO) used as 100% activity. Values >100% are attributed to activation, while values <100% show inhibition of the enzyme compared to the control. The assay was performed at the indicated concentration of the small molecule with 100 μM PI(3,4,5)P3-diC8 as the substrate. ^bnd=not determined, compound 23 was insoluble.
Cloning and expression of tSHIP1 of truncated human SHIP1 protein (tSHIP1) from human whole blood mRNA have been previously described (see Brooks R, Iyer, S., Akada, H., Neelam, S., Russo, C. M., Chisholm, J. D., and Kerr W. G. Coordinate Expansion of Murine Hematopoietic and Mesenchymal Stem Cell Compartments by SHIPi Stem Cells 2015; 33:848). Briefly, tSHIP1 (SHIP1, residues 397-864) was amplified from pET24TEV-tSHIP1. Plasmids were extracted with Midi Prep (Qiagen) and sequences were verified by sequencing of the entire expression regions. The plasmids were then transformed into E. coli BL21 (New England Biolabs). Fresh colonies were amplified in 1 L LB at 37° C., shaking at 250 rpm until OD600 nm reached 0.6. Protein expression was induced with […] IPTG and incubation was continued at 16° C., shaking at 250 rpm for 16 h. Following centrifugation, bacteria pellets were stored overnight at −20° C. Protein was extracted form bacterial cell pellet using BugBuster HT (Millipore), according to manufacturer's recommendations. The His-tagged protein was purified by FPLC using HisTrapHP 5 ml column (Cytiva Life Sciences) at a 5 ml/min flow rate and 10 mM-1M imidazole gradient in Buffer A (20 mM Tris pH 8.0, 300 mM NaCl, 10 mM imidazole, 5 mM β-mercaptoethanol). Fractions containing active protein by Malachite Green Phosphatase Release Assay (Echelon, see below) were pooled, concentrated and buffer exchanged to reduce imidazole concentration by centrifugation using Pierce Protein Concentrators 30KMWCO PES, (ThermoFisher Scientific). Protein was aliquoted and stored at −80° C. in a mixture of Buffer A (without β-ME) and 50% glycerol.
Malachite Green Phosphatase Release Assays: Malachite Green Phosphatase Release Assays (Echelon Biosciences) were performed with recombinant human truncated SHIP1 (tSHIP1) (Brooks, 2015) and SHIP2 (Echelon Biosciences). Briefly, serial dilutions of the compounds dissolved in DMSO were added to the recombinant enzymes diluted in reaction buffer Rx (50 mM Hepes pH 7.4, 150 mM NaCl, 1 mM MgCl2, 0.25 mM EDTA) in triplicate reactions in 96-well plates. Reactions were incubated for 2 min at room temperature. […] of 1 mM Phosphatidylinositol 3,4,5-trisphosphate diC8 (PI(3,4,5)P3diC8) (Echelon Biosciences) was added to each reaction to a final concentration of 100 μM in a final volume of […]. Following 20 min incubation at 37° C., 100 μL of Malachite Green Solution (Echelon Biosciences) was added to each well and plates were incubated at room temperature in the dark for 15 min. Plates were then read at 620 nm on a plate reader (Synergy 2, BioTek).

[2] = test system: IL-6 production in BV-2 cells; experiment: ELISA quantitation of IL-6 production in BV-2 cells after stimulation with LPS; assay type: cell-based, murine; settings: 1 h pretreatment with SHIP1 activator 10 μM, then LPS
Description: FIG. 3 presents an ELISA quantitation of IL-6 production in BV-2 cells after stimulation with LPS. BV-2 cells were plated and treated for 1 h with vehicle (Veh, 0.25% DMSO) or SHIP1 activator (10 μM in Veh) prior to addition of LPS (100 ng/ml). Unstimulated BV2 cells treated with Veh are shown as an additional control to assess LPS induction of IL-6. (A) Evaluation of 1, 26, 29 and 53. (B) In a separate experiment, 70, and 71 were evaluated under similar conditions. Bars indicate Mean G SEM; statistical tests: two-way ANOVA with Tukey correction, **** p<0.0001, ** p<0.01.
Given this experience, some of the new activators were evaluated in a cell-based setting. Using the immortalized BV-2 cell line, which is derived from murine microglia and retains many microglial morphological and functional characteristics of microglia, an assay for the anti-inflammatory effects of these activators was developed. This assay involved treatment of the cells with lipopolysaccharides (LPS) to induce IL-6 production which can then be quantified with an ELISA.
Cell culture: The BV2 cell line was obtained from the ATCC (American Type Culture Collection). The ATCC and performs genetic validation on deposited cell lines. For the inflammatory cytokines production studies, BV2 cells were cultured in DMEM/F12 (Corning) 10% HI FBS at 37° C. and 5% CO2 in a humidified incubator and split 1:6 every 3 days with Cellstripper™ (Corning). Cells were kept at 37° C. and 5% CO2 in a humidified incubator.
ELISA measurements: Parental (scrambled guide control) BV2 cells were seeded at 5×10^5/mL, […] in 48 well plate. Cell were treated with […] small molecule or vehicle control (0.5% DMSO) and incubated for 1 h before addition of stimuli. LPS (10 ng/ml, E. coli O111: B4, Sigma) was added to the cells and incubated for 6 h to detect IL-6 production. Supernatants were spun down at 400×g for 5 minutes to remove cell debris and froze at −20° C. for ELISAs. IL-6 levels were quantified from cellular supernatants with ELISA MAX™ Standard Set Mouse IL-6 kit (Biolegend), following manufacturer's recommendations. We detected absorbance at 450 nm and removed 570 nm background absorbance, with a plate reader (Synergy 2, BioTek). All experiments were repeated three times and each value was reported as mean±SEM from biological replicates in the same assay. All statistical analysis were performed using GraphPad Prism (version 9.2). Two-way ANOVA was used to analyze all data with two independent variables as time and treatment or concentration and treatment, data is reported as Mean+/−SEM.

[3] = Solubility of the isolated solid in common solvents; assay type: physicochemical; settings: DMSO, acetone, methanol, chloroform, and water
Description: While most of the analogs in Table 1 were easy to handle, attempts to isolate the thiomorpholine sulfone 23 were problematic. During the final sulfonamide formation to access 23 an insoluble solid was formed and filtered from the reaction mixture. […] A combustion analysis did match the formula for the desired product, however given the insolubility of this substance it was not evaluated further.

Phosphatase activity in the Malachite Green Assay, analog concentration 125 μM [1] [%]	Phosphatase activity in the Malachite Green Assay, analog concentration 250 μM [1] [%]	Phosphatase activity in the Malachite Green Assay, analog concentration 500 μM [1] [%]	SHIP1 activator activity in the malachite green assay [1]	Solubility [3]	Structure (SMILES)	IL-6 production induced by LPS [2]
106	108	139	good activator activity		Cc1sc(S(=O)(=O)N2CCSCC2)cc1NC(=O)CNS(=O)(=O)c1ccccc1C(F)(F)F [Compound K403, N-[2-methyl-5-(thiomorpholine-4-sulfonyl)thiophen-3-yl]-2-(2-trifluoromethylbenzenesulfonamido) acetamide]	significant activity
				insoluble in any solvent	Cc1sc(S(=O)(=O)N2CCS(=O)(=O)CC2)cc1NC(=O)CNS(=O)(=O)c1ccc(F)cc1 [Compound 23]	
124	124	122			CCCCNS(=O)(=O)c1cc(NC(=O)CNS(=O)(=O)c2ccc(F)cc2)c(C)s1 [Compound K382, N-[5-(Butylsulfamoyl)-2-methylthiophen-3-yl]-2-(4-fluorobenzenesulfonamido) acetamide]	especially significant reductions of IL-6 production
107	127	130	significant activity at 250 μM		Cc1sc(S(=O)(=O)N2CCSCC2)cc1NC(=O)[C@@H]1CCCN1S(=O)(=O)c1ccc(F)cc1 [Compound K408]	significant decrease in IL-6 formation
116	119	128	nearly as active as K306		Cc1sc(S(=O)(=O)N2CCCCC2)cc1NC(=O)CNS(=O)(=O)c1ccc(F)cc1 [Compound K368, 2-(4-Fluorobenzenesulfonamido)-N-[2-methyl-5-(piperidine-1-sulfonyl)thiophen-3-yl]acetamide]	especially significant reductions of IL-6 production
